Data as given in ChEMBL document CHEMBL2311349, “Evidence for a new binding mode to GSK-3: allosteric regulation by the marine compound palinurin” (Eur J Med Chem, 2013).
Calls of active or inactive are those of the source. No cut-off for these calls is given here.

Legend:
[1] = target: T1, Glycogen synthase kinase-3 beta (Homo sapiens, UniProt P49841); test: Inhibition of human recombinant GSK-3beta using GS2 peptide as substrate and [gamma33P]-ATP at 50 uM after 30 mins by scintillation counting
Target sequence in this assay (P49841 whole entry, looked up): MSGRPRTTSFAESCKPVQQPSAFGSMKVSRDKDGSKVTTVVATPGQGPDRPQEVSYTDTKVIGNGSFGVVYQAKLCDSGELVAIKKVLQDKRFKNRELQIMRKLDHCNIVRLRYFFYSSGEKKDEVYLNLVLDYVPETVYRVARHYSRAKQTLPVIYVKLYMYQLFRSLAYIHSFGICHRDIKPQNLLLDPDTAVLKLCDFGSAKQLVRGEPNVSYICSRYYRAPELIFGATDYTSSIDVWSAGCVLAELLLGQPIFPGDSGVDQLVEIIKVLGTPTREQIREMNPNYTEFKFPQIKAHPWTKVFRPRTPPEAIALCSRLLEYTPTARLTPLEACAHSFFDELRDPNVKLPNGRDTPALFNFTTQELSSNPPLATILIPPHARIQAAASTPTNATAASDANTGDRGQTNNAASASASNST

[2] = target: T1, Glycogen synthase kinase-3 beta; test: Inhibition of human recombinant GSK-3beta using GS2 peptide as substrate and [gamma33P]-ATP after 30 mins by scintillation counting
Target sequence in this assay (P49841 whole entry): as the sequence (P49841 whole entry, looked up) above

[3] = target: T1, Glycogen synthase kinase-3 beta; settings: SH-SY5Y, 15 to 200 uM
Target sequence in this assay (P49841 whole entry, looked up): as above
Description: Inhibition of GSK-3beta in human SH-SY5Y cells assessed as reduction of tau phosphorylation at 15 to 200 uM after 18 hrs by ELISA sandwich method

[4] = target: Cyclin-dependent kinase 1 (Homo sapiens, UniProt P06493); test: Inhibition of human recombinant CDK1 using histone H1 as substrate and [gamma33P]-ATP after 15 mins by scintillation counting
Cyclin-dependent kinase 1, sequence (P06493 whole entry): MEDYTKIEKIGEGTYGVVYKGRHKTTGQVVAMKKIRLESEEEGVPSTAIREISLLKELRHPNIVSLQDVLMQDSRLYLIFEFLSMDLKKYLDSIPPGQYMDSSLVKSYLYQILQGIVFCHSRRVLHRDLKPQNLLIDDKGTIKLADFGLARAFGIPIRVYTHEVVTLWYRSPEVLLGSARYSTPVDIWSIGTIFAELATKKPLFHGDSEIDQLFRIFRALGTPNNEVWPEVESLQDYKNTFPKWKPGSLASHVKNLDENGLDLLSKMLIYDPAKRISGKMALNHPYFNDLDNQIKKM

[5] = Inhibition of human recombinant MAPK using […] as substrate and [gamma33P]-ATP after 15 mins by scintillation counting
[6] = target: Glycogen synthase kinase-3 alpha (Homo sapiens, UniProt P49840); test: Inhibition of human recombinant GSK-3alpha using GS2 peptide as substrate and [gamma33P]-ATP after 12 mins by scintillation counting
Glycogen synthase kinase-3 alpha, sequence (P49840 whole entry): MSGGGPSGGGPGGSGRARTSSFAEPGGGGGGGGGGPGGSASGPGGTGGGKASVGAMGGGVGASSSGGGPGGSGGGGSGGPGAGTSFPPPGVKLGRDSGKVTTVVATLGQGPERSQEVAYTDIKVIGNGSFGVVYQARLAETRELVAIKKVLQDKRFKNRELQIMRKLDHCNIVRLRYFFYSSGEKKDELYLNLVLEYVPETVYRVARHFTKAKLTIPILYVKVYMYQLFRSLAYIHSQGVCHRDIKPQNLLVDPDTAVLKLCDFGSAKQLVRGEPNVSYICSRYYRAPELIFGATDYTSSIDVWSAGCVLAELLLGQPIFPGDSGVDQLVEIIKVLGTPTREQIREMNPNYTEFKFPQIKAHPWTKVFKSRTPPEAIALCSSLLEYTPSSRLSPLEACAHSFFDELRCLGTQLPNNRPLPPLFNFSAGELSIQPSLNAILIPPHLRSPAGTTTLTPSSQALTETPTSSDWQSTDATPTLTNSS

Casein kinase II [7] = target: Casein kinase II (Homo sapiens, UniProt P67870+P68400+P19784); test: (§1) Inhibition of human recombinant CK2 using GS2 peptide as substrate and [gamma33P]-ATP after 30 mins by scintillation counting; format: protein-complex assay
Casein kinase II (Homo sapiens, UniProt P67870+P68400+P19784), sequence (P67870 whole entry): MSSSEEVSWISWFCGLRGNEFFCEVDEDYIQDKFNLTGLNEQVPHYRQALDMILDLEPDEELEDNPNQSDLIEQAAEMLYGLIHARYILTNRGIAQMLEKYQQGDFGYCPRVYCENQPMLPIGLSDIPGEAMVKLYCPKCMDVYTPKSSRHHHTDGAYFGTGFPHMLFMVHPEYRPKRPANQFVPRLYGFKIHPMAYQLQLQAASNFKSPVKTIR
Casein kinase II (Homo sapiens, UniProt P67870+P68400+P19784), sequence (P68400 whole entry): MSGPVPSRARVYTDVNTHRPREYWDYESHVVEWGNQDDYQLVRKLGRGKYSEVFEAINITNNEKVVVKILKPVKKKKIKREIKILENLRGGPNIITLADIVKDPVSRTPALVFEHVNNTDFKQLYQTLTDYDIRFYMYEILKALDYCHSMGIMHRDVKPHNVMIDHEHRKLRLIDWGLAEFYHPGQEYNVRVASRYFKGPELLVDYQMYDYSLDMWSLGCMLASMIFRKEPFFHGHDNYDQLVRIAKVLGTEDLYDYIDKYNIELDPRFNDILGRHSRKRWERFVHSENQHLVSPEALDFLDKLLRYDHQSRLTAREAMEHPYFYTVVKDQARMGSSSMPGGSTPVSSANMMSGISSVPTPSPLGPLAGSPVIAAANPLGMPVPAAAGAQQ
Casein kinase II (Homo sapiens, UniProt P67870+P68400+P19784), sequence (P19784 whole entry): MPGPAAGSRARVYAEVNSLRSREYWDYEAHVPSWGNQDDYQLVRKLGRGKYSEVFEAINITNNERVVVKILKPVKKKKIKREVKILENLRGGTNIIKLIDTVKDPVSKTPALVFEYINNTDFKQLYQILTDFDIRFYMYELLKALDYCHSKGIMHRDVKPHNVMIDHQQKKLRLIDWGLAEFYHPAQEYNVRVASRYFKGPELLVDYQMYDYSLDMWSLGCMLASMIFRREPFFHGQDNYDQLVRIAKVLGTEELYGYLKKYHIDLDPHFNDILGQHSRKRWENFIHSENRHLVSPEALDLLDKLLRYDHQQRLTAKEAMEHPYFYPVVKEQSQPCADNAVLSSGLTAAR

Casein kinase II [8] = target: Casein kinase II (Homo sapiens, UniProt P19784+P67870+P68400); test: as §1; format: protein-complex assay
Casein kinase II (Homo sapiens, UniProt P19784+P67870+P68400), sequence (P67870 whole entry): as the sequence (P67870 whole entry) above
Casein kinase II (Homo sapiens, UniProt P19784+P67870+P68400), sequence (P68400 whole entry): as the sequence (P68400 whole entry) above
Casein kinase II (Homo sapiens, UniProt P19784+P67870+P68400), sequence (P19784 whole entry): as the sequence (P19784 whole entry) above

[9] = target: Cyclin-dependent kinase 5 (Homo sapiens, UniProt Q00535); test: Inhibition of human recombinant CDK5 using histone H1 as substrate and [gamma33P]-ATP after 20 mins by scintillation counting
Cyclin-dependent kinase 5, sequence (Q00535 whole entry): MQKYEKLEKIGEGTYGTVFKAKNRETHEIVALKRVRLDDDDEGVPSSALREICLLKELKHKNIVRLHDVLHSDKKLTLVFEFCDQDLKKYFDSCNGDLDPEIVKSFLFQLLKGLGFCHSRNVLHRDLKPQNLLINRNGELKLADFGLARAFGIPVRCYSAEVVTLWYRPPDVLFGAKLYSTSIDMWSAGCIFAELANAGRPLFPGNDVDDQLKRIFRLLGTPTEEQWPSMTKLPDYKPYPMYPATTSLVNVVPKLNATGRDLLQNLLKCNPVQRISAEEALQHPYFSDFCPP

[10] = Cytotoxicity against human SH-SY5Y cells assessed as intracellular LDH level after 18 hrs; format: cell-based

Structure (SMILES): CCCCCCCCCC(=O)OC[C@H](O)[C@H]1OC(=O)C(O)=C1O
- inhibition [1]: 86%
- IC50 ([2]; read-out: IC50): 6.1 µM

Structure (SMILES): CCCCCCCC(=O)OC[C@H](O)[C@H]1OC(=O)C(O)=C1O
- inhibition [1]: 65%
- IC50 ([2]; read-out: IC50): > 50 µM
- IC50 ([2]; read-out: pIC50 (converted)): > 50.1 µM

Structure (SMILES): CCCCCCCCCCCCCC(=O)OC[C@H](O)[C@H]1OC(=O)C(O)=C1O
- IC50 ([2]; read-out: IC50): > 5.8 µM
- IC50 ([2]; read-out: pIC50 (converted)): 5.75 µM

Structure (SMILES): O=C1O[C@H]([C@@H](O)CO)C(O)=C1O
- inhibition [1]: 80%

Structure (SMILES): CC1=C(O)[C@@H](C/C(C)=C/CCC(C)/C=C/C=C(\C)CCCc2ccoc2)OC1=O (stereo in doubt; A)
- inhibition [3]: Active

Structure (SMILES): CC1=C(O)[C@@H](C/C(C)=C/CCC(C)/C=C/C=C(\C)CCCc2ccoc2)OC1=O (stereo in doubt; A) [PALINURIN]
- IC50 ([4]; read-out: IC50): > 100 µM
- IC50 ([4]; read-out: pIC50 (converted)): > 100 µM
- IC50 [5]: > 100 µM
- pIC50 [5]: < 4
- IC50 [6]: 1.6 µM
- IC50 ([2]; read-out: IC50): 2.6 µM
- IC50 (Casein kinase II [7]): > 100 µM
- IC50 (Casein kinase II [8]): > 100 µM
- IC50 ([9]; read-out: IC50): > 25 µM
- IC50 ([9]; read-out: pIC50 (converted)): > 25.1 µM

Structure (SMILES): CC1=C(O)[C@@H](C/C(C)=C/CCC(C)/C=C/C=C(\C)CCCc2ccoc2)OC1=O (stereo in doubt; B)
- inhibition [3]: Active

Structure (SMILES): CC1=C(O)[C@@H](C/C(C)=C/CCC(C)/C=C/C=C(\C)CCCc2ccoc2)OC1=O (stereo in doubt; B) [PALINURIN]
- IC50 ([2]; read-out: IC50): 1.9 µM
- Activity [10]: Non-toxic

Structure (SMILES): CC1=C(O)/C(=C/[C@H](C)CCC/C(C)=C/CCc2coc(Cc3ccoc3)c2)OC1=O [IRCININ 1]
- IC50 ([2]; read-out: IC50): 0.8 µM

Structure (SMILES): CC1=C(O)/C(=C/[C@H](C)CC/C=C(/C)CCCc2coc(Cc3ccoc3)c2)OC1=O [IRCININ 2]
- IC50 ([2]; read-out: IC50): 2.3 µM
